Several values for one entry are separate records, joined by “and”; a condition that tells them apart may be missing. Identical values can stand only once. Counter-ions that a name gives are not always drawn.
Experiments:
[1] = cited from earlier work
[2] = Pharmacokinetics after iv and oral administration, P‐S difference method, Mdr1a/1b(−/−) mice; type: in vivo
Description: (§1) Male Mdr1a/1b(−/−) and Bcrp(−/−) mice, and WT mice of the same genetic background (FVB) were obtained from Taconic Farms (Germantown, NY, USA). […] Food and water were available ad libitum. All experiments were carried out in accordance with the principles and procedures outlined in the National Institutes of Health Guide for the Care and Use of Laboratory.
(§2) All the mice were fasted overnight with free access to tap water. In the intravenous administration studies, model compounds were administered via the tail vein at doses of 1 mg/kg (n = 3). Following administration, blood samples were collected from the abdominal vein of the anesthetized mice at 0.083, 0.17, 0.5, 1, 2, 4, and 8 hours. […] Following administration, blood samples were taken from the portal and abdominal veins of the anesthetized mice at 0.083, 0.17, 0.5, 1, 2, 4, and 8 hours. The plasma samples were separated by centrifugation at 14 000g for 10 minutes at 4°C and stored at −30°C until analysis.
(§3) After organic layer was evaporated at 60°C, the resultant residues were dissolved in a mobile phase. For the determination of topotecan and sulfasalazine, plasma samples were mixed with acetonitrile, centrifuged at 750 g for 10 minutes at 4°C, and the supernatants were collected. After the evaporation of the supernatants, the residues were dissolved in a mobile phase, and acidified with phosphoric acid for topotecan. All drugs were analyzed by HPLC system (Shimadzu LC‐10AS pump, Shimadzu SIL‐10A autosampler) equipped with a reverse‐phase column (COSMOSIL 5C18‐AR‐II, 3.5‐μm […], 4.6 × 150 mm).
(§4) Elimination rate constant (k e) was determined by the least squares regression analysis of plasma concentration vs time curve. Elimination half‐life (t 1/2) was calculated using Eq.1:(1) t1/2=ln2/ke
(§5) Area under plasma concentration‐time curve (AUC) and area under the first moment curve (AUMC) from time 0 to infinity were calculated by trapezoidal rule.
(§6) Absorption rate constant (k a) after oral administration was calculated by the nonlinear least squares fitting with program MULTI.12
(§7) BA was calculated by Eq.5:(7) BA=AUCoral/AUCiv×Doseiv/Doseoral×100 where AUCoral is AUC after oral administration. Doseiv and Doseoral are administered dose in the intravenous and oral administration study, respectively.
(§8) Hepatic availability (F h) was calculated by Eq.6:(8) Fh=F/Fa×Fg

[3] = Pharmacokinetics after iv and oral administration, P‐S difference method, Bcrp(−/−) mice; type: in vivo
Description: as §1, §2, §3, §4, §5, §6, §7, §8

P‐gp [4] = test system: P‐gp
P‐gp [5] = details: Caco‐2 permeability study; unpublished data; ref Fujita et al, manuscript in preparation; cited from earlier work
[6] = Pharmacokinetics after iv and oral administration, P‐S difference method, wild‐type mice; type: in vivo; details: for half-life / AUC(0-inf) / Cmax / Tmax: 1 mg/kg
Description: as §1, §2, §3, §4, §5, §6, §7, §8

[7] = Blood/plasma concentration ratio (R b) in fresh whole blood; type: in vitro ADME, FVB mice; details: fresh whole blood, FVB mouse whole blood, 37°C
Description: Similarly, the model compounds were added to plasma, and reference blood samples were obtained according to the same procedure. These concentrations of drugs in each sample were analyzed using HPLC (C B and C P, respectively). R b value was calculated by dividing C B by C P.

BCRP [8] = assay: Human AQBCRP estimated from the clinical data; type: in vivo
BCRP [9] = details: calculated from k a in WT, Bcrp(−/−) and Mdr1a/1b(−/−) mice (Eq. 9)
[10] = Mdr1a/1b(−/−) mice, p.o. (ciprofloxacin 1, nitrofurantoin 2, topotecan 1, sulfasalazine 5 mg/kg)
[11] = male, Mdr1a/1b(−/−) (FVB background), mouse, portal vein plasma, po, 1 mg/kg
[12] = male, Mdr1a/1b(−/−) (FVB background), mouse, systemic plasma (abdominal vein), po, 1 mg/kg
[13] = Bcrp(−/−) mice, p.o. (ciprofloxacin 1, nitrofurantoin 2, topotecan 1, sulfasalazine 5 mg/kg)
[14] = male, Bcrp(−/−) (FVB background), mouse, portal vein plasma, po, 1 mg/kg
[15] = male, Bcrp(−/−) (FVB background), mouse, systemic plasma (abdominal vein), po, 1 mg/kg
[16] = male, FVB (wild-type), mouse, portal vein plasma, po
[17] = male, FVB (wild-type), mouse, systemic plasma (abdominal vein), po
[18] = wild‐type mice, p.o. (ciprofloxacin 1, nitrofurantoin 2, topotecan 1, sulfasalazine 5 mg/kg)

F h [2, 10]: 54.8% | k a [2, 10]: 3.68 h⁻¹ | BA ([2]; Mdr1a/1b(−/−) mice, p.o. (ciprofloxacin 1, nitrofurantoin 2, topotecan 1, sulfasalazine 5 mg/kg) vs iv 1 mg/kg): 34.9% | F a F g ([2]; Mdr1a/1b(−/−) mice, p.o. (ciprofloxacin 1, nitrofurantoin 2, topotecan 1, sulfasalazine 5 mg/kg), P‐S difference method): 63.8% | k a, P‐gp ([2]; Table 5 summary, Mdr1a/1b(−/−) mice, oral administration): 3.68 | (F a F g)P‐gp ([2]; as fraction, Mdr1a/1b(−/−) mice, oral administration): 0.64 | clearance ([2]; male, FVB Mdr1a/1b(−/−), mouse, plasma (systemic, abdominal vein), Mdr1a/1b(−/−) mice, iv 1 mg/kg, read-out: CL tot (converted)): 35.5 mL/min/kg | Vd ([2]; male, FVB Mdr1a/1b(−/−), mouse, plasma (systemic, abdominal vein), Mdr1a/1b(−/−) mice, iv 1 mg/kg, read-out: Vdss): 2.19 L/kg | AUC(0-inf) ([2]; male, FVB Mdr1a/1b(−/−), mouse, portal vein plasma, po, 1 mg/kg, read-out: AUC 0→∞ (AUCpv)): 0.589 µM·h | AUC(0-inf) ([2]; male, FVB Mdr1a/1b(−/−), mouse, systemic plasma (abdominal vein), po, 1 mg/kg, read-out: AUC 0→∞ (AUCsys)): 0.358 µM·h | half-life ([2]; male, Mdr1a/1b(−/−) (FVB background), mouse, plasma, Mdr1a/1b(−/−) mice, iv 1 mg/kg): 64.8 min | AUC(0-inf) ([2]; male, Mdr1a/1b(−/−) (FVB background), mouse, plasma, Mdr1a/1b(−/−) mice, iv 1 mg/kg, read-out: AUC 0→∞): 1.02 µM·h | Cmax [2, 11]: 664 nM | Tmax [2, 11]: 4.8 min | Cmax [2, 12]: 242 nM | Tmax [2, 12]: 10.2 min | half-life [2, 12]: 73.8 min | F h [3, 13]: 74.0% | k a [3, 13]: 5.18 h⁻¹ | BA ([3]; Bcrp(−/−) mice, p.o. (ciprofloxacin 1, nitrofurantoin 2, topotecan 1, sulfasalazine 5 mg/kg) vs iv 1 mg/kg): 76.3% | F a F g ([3]; Bcrp(−/−) mice, p.o. (ciprofloxacin 1, nitrofurantoin 2, topotecan 1, sulfasalazine 5 mg/kg), P‐S difference method): 103% | k a, bcrp ([3]; Table 5 summary, Bcrp(−/−) mice, oral administration): 5.18 | (F a F g)bcrp ([3]; as fraction, Bcrp(−/−) mice, oral administration): 1.03 | half-life ([3]; male, Bcrp(−/−) (FVB background), mouse, plasma, iv, 1 mg/kg, Bcrp(−/−) mice, iv 1 mg/kg): 89.4 min | Cmax [3, 14]: 855 nM | Tmax [3, 14]: 4.8 min | Cmax [3, 15]: 476 nM | Tmax [3, 15]: 10.2 min | AUC(0-inf) ([3]; male, FVB Bcrp(−/−), mouse, plasma (systemic, abdominal vein), iv, 1 mg/kg, Bcrp(−/−) mice, iv 1 mg/kg, read-out: AUC 0→∞): 1.49 µM·h | clearance ([3]; male, FVB Bcrp(−/−), mouse, plasma (systemic, abdominal vein), Bcrp(−/−) mice, iv 1 mg/kg, read-out: CL tot (converted)): 24.5 mL/min/kg | Vd ([3]; male, FVB Bcrp(−/−), mouse, plasma (systemic, abdominal vein), Bcrp(−/−) mice, iv 1 mg/kg, read-out: Vdss): 2.21 L/kg | AUC(0-inf) ([3]; male, FVB Bcrp(−/−), mouse, portal vein plasma, po, 1 mg/kg, Bcrp(−/−) mice, p.o. (ciprofloxacin 1, nitrofurantoin 2, topotecan 1, sulfasalazine 5 mg/kg), portal vein (pv) plasma, read-out: AUC 0→∞ (AUCpv)): 1.51 µM·h | AUC(0-inf) ([3]; male, FVB Bcrp(−/−), mouse, portal vein plasma, po, Bcrp(−/−) mice, p.o. (ciprofloxacin 1, nitrofurantoin 2, topotecan 1, sulfasalazine 5 mg/kg), portal vein (pv) plasma, read-out: AUC 0→∞ (AUCpv)): 1.51 µM·h | half-life ([3]; male, FVB Bcrp(−/−), mouse, systemic plasma (abdominal vein), po, 1 mg/kg, Bcrp(−/−) mice, p.o. (ciprofloxacin 1, nitrofurantoin 2, topotecan 1, sulfasalazine 5 mg/kg), systemic (sys) plasma): 88.2 min | AUC(0-inf) ([3]; male, FVB Bcrp(−/−), mouse, systemic plasma (abdominal vein), po, 1 mg/kg, Bcrp(−/−) mice, p.o. (ciprofloxacin 1, nitrofurantoin 2, topotecan 1, sulfasalazine 5 mg/kg), systemic (sys) plasma, read-out: AUC 0→∞ (AUCsys)): 1.14 µM·h | AUC(0-inf) ([3]; male, FVB Bcrp(−/−), mouse, systemic plasma (abdominal vein), po, Bcrp(−/−) mice, p.o. (ciprofloxacin 1, nitrofurantoin 2, topotecan 1, sulfasalazine 5 mg/kg), systemic (sys) plasma, read-out: AUC 0→∞ (AUCsys)): 1.14 µM·h | AUC pv and AUC sys after oral administration, Bcrp(−/−) mice vs WT mice ([3]; oral administration): approximately 3 fold | AQ P‐gp (in vivo) (P‐gp [4]; calculated from k a in WT, Bcrp(−/−) and Mdr1a/1b(−/−) mice (Eq. 10)): 0.08 | R P‐gp (rate of P‐gp contribution) (P‐gp [4]; in vivo (mice), calculated from F a F g in WT, Bcrp(−/−) and Mdr1a/1b(−/−) mice (Eq. 12)): 0.06 | k a, wt ([6]; Table 5 summary, WT mice, oral administration): 3.18 | (F a F g) wt ([6]; as fraction, WT mice, oral administration): 0.57 | clearance ([6]; male, FVB (wild-type), mouse, plasma (systemic, abdominal vein), wild‐type mice, iv 1 mg/kg, read-out: CL tot (converted)): 36.7 mL/min/kg | Vd ([6]; male, FVB (wild-type), mouse, plasma (systemic, abdominal vein), wild‐type mice, iv 1 mg/kg, read-out: Vdss): 2.59 L/kg | half-life ([6]; male, FVB (wild-type), mouse, plasma, iv, wild‐type mice, iv 1 mg/kg): 75.6 min | AUC(0-inf) ([6]; male, FVB (wild-type), mouse, plasma, iv, wild‐type mice, iv 1 mg/kg, read-out: AUC 0→∞): 0.994 µM·h | Cmax [6, 16]: 720 nM | Tmax [6, 16]: 4.8 min | AUC(0-inf) ([6]; male, FVB (wild-type), mouse, portal vein plasma, po, wild‐type mice, p.o. (ciprofloxacin 1, nitrofurantoin 2, topotecan 1, sulfasalazine 5 mg/kg), portal vein (pv) plasma, read-out: AUC 0→∞ (AUCpv)): 0.577 µM·h | Cmax [6, 17]: 218 nM | Tmax [6, 17]: 30 min | half-life ([6]; male, FVB (wild-type), mouse, systemic plasma (abdominal vein), po, wild‐type mice, p.o. (ciprofloxacin 1, nitrofurantoin 2, topotecan 1, sulfasalazine 5 mg/kg), systemic (sys) plasma): 62.4 min | AUC(0-inf) ([6]; male, FVB (wild-type), mouse, systemic plasma (abdominal vein), po, wild‐type mice, p.o. (ciprofloxacin 1, nitrofurantoin 2, topotecan 1, sulfasalazine 5 mg/kg), systemic (sys) plasma, read-out: AUC 0→∞ (AUCsys)): 0.37 µM·h | F h [6, 18]: 65.6% | k a [6, 18]: 3.18 h⁻¹ | F a F g ([6]; wild‐type mice, p.o. (ciprofloxacin 1, nitrofurantoin 2, topotecan 1, sulfasalazine 5 mg/kg), P‐S difference method): 57% and 56.8% | blood plasma ratio at 15 min, 1 µg/mL [7]: 0.94 ± 0.05 | human AQBCRP (BCRP [8]): 0.58 | AQ bcrp (in vivo) (BCRP [9]): 0.35
SMILES: CC[C@@]1(O)C(=O)OCc2c1cc1n(c2=O)Cc2cc3c(CN(C)C)c(O)ccc3nc2-1 [topotecan, Topotecan HCl]
BA after oral administration ([1]; human clinical studies): about 40% | human BA ([1]; human): 40% | oral BA, patients heterozygous variant for the BCRP SNP vs normal BCRP ([1]; human): 1.3 fold | BA when GF120918 is orally coadministered ([1]; human, with GF120918 (BCRP inhibitor)): 100% | AQp‐gp in vitro (Caco‐2) (P‐gp [5]): 0.14
